From patent publication US11193932B2, “4,4-disubstituted cyclohexyl bridged heptamethine cyanine dyes and uses thereof” (VisEn Medical, Inc., priority 2013, dated 2021)
Values belong to the molecule of their own block, whether it stands above or below them.

Legend:
[1] = Fluorescence emission maximum of the dyes; format: physicochemical
[2] = Absorbance of the dyes (absorption maximum, extinction coefficient); format: physicochemical

SMILES: CCN1/C(=C/C=C2C=C(/C=C/C3=[N+](CC)c4ccc5c(S(=O)(=O)[O-])cc(S(=O)(=O)O)cc5c4C3(C)C)CC(C(=O)NCCCCCC(=O)O)(C(=O)NCCS(=O)(=O)O)C/2)C(C)(C)c2c1ccc1c(S(=O)(=O)O)cc(S(=O)(=O)O)cc21 (stereo not drawn) [Compound 4m]
- Em. Max ([1]; water): 795 nm
- Abs. max ([2]; MeOH): 780 nm
- Abs. max ([2]; in water): 775 nm

SMILES: CC1(C)C(/C=C/C2=CC(=C/C=C3/N(CCCS(=O)(=O)O)c4ccc(S(=O)(=O)O)cc4C3(C)C)/CC(C(=O)NCCCCCC(=O)O)(C(=O)NCCS(=O)(=O)O)C2)=[N+](CCCS(=O)(=O)[O-])c2ccc(S(=O)(=O)O)cc21 (stereo not drawn) [Compound 1f]
- Em. Max ([1]; in water/1× PBS): 771 nm
- Abs. max ([2]; in water/1× PBS): 751 nm

SMILES: CCOC(=O)C1(C(=O)O)CC(/C=C/C2=[N+](CCCS(=O)(=O)[O-])c3ccc(S(=O)(=O)O)cc3C2(C)C)=CC(=C/C=C2/N(CCCS(=O)(=O)O)c3ccc(S(=O)(=O)O)cc3C2(C)C)/C1 (stereo not drawn) [Compound 1b]
- Em ([1]; 1x PBS): 771 nm
- % absorption of the dye at 278 nm with respect to its abs. at λmax, 750 nm [2]: 4%
- Abs ([2]; 1x PBS): 749 nm
- ε (extinction coefficient of the dye) ([2]; 1x PBS, in M-1 cm-1 (unit assumed)): 240,000

Results, then the molecule that gave them:

- Abs. max ([2]; in water): 749 nm
SMILES: CCOC(=O)C1(C(=O)NCCS(=O)(=O)O)CC(/C=C/C2=[N+](CCCS(=O)(=O)[O-])c3ccc(S(=O)(=O)O)cc3C2(C)C)=CC(=C/C=C2/N(CCCS(=O)(=O)O)c3ccc(S(=O)(=O)O)cc3C2(C)C)/C1 (stereo not drawn) [Compound 1c]

- Em. Max ([1]; in water/1× PBS): 771 nm
- Abs. max ([2]; in water/1× PBS): 751 nm
SMILES: CC1(C)C(/C=C/C2=CC(=C/C=C3/N(CCCS(=O)(=O)O)c4ccc(S(=O)(=O)O)cc4C3(C)C)/CC(C(=O)O)(C(=O)NCCS(=O)(=O)O)C2)=[N+](CCCS(=O)(=O)[O-])c2ccc(S(=O)(=O)O)cc21 (stereo not drawn) [Compound 1d]
